From patent US7241785B2, “Five-membered heterocyclic alkanoic acid derivative” (Takeda Pharmaceutical Company Limited, priority 2001, dated 2007) come the findings set out here.

Series [1] has as its system KKA^y mice. In words: Hypoglycemic and hypolipidemic (hypotriglyceridemic) actions in mice. In kind it is in vivo. Conditions: Mus musculus, po, 96 h, 0.01% in powdery diet, four days. As for the experimental part: Hypoglycemic and Hypolipidemic (Hypotriglyceridemic) Actions in Mice
Test compounds were mixed in a powdery diet (CE-2, Japan Clea) at the concentration of 0.01%, and freely given to KKA^y mice (11 to 12 weeks old, 5 mice per group), a model of type 2 diabetes mellitus, for four days. During this period, water was given freely. Blood was sampled from orbital venous plexus, and glucose and triglyceride levels in plasma separated from the blood were determined enzymatically using L type Wako Glu2 (Wako Pure Chemical Industries, Ltd.) or L type Wako TG.H (Wako Pure Chemical Industries, Ltd.), respectively.
In the Table, “hypoglycemic action (%)” represents a percent reduction (%) of the blood glucose level in the treatment group when the blood glucose level in the non-treatment group is taken as 100%. In addition, “hypolipidemic action (%)” represents a percent reduction (%) of the blood triglyceride level in the treatment group when the blood triglyceride level in the non-treatment group is taken as 100%.

The test system of series [2] is KKA^y mice. In words: Total cholesterol lowering action and plasma anti-arteriosclerosis index-enhancing action in mice. In kind it is in vivo. Conditions: Mus musculus, po, 96 h, 0.01% in powdery diet, four days; for change in vivo at 0.01 % in diet: percent increase of index [(HDL cholesterol/total cholesterol)×100] vs non-treatment group (100%); for inhibition in vivo at 0.01 % in diet: percent reduction of total cholesterol level vs non-treatment group (100%). As for the experimental part:
Total Cholesterol Lowering Action and Plasma Anti-Arteriosclerosis Index-Enhancing Action in Mice
Test compounds were mixed in a powdery diet (CE-2, Japan Clea concentration of 0.01%, and freely given to KKA^y mice (11 to 12 weeks old, 5 mice per group), a model of type 2 diabetes mellitus, for four days. During this period, water was given freely. Blood was sampled from orbital venous plexus, and components in plasma separated from the blood were determined. Total cholesterol levels were determined using L type Wako Cholesterol (Wako Pure Chemical Industries, Ltd.). Precipitation reagent for HDL cholesterol was added to a part of the plasma to precipitate non-HDL lipoprotein, and cholesterol (HDL cholesterol) in the resulting supernatant was determined. The plasma anti-arteriosclerosis index [(HDL cholesterol/total cholesterol)×100] was calculated using these cholesterol levels.
In the Table, “total cholesterol lowering action (%)” represents a percent reduction (%) of the total cholesterol level in the treatment group when the total cholesterol level in the non-treatment group is taken as 100%. In addition, “plasma anti-arteriosclerosis index-enhancing action (%)” represents a percent increase (%) of the plasma anti-arteriosclerosis index in the treatment group when the plasma anti-arteriosclerosis index in the non-treatment group is taken as 100%.

For a further series, the target named is T1, PPARγ-RXRα heterodimer (Homo sapiens, UniProt P37231).
T1 construct: expressed in transfected cells
T1 sequence (P37231 1-477 isoform P37231-2): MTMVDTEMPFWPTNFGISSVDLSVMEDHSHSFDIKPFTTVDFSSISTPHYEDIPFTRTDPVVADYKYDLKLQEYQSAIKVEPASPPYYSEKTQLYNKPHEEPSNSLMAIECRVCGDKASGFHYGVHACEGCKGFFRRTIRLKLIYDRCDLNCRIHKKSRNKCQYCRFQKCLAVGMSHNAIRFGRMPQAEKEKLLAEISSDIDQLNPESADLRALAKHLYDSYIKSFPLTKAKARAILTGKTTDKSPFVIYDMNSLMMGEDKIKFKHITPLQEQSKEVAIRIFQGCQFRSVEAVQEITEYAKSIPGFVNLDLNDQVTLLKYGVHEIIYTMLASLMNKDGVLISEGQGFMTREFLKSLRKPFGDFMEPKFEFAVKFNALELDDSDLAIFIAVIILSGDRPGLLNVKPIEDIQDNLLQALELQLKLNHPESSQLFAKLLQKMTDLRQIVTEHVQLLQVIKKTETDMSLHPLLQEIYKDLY
T1 sequence (P19793 1-462 partner): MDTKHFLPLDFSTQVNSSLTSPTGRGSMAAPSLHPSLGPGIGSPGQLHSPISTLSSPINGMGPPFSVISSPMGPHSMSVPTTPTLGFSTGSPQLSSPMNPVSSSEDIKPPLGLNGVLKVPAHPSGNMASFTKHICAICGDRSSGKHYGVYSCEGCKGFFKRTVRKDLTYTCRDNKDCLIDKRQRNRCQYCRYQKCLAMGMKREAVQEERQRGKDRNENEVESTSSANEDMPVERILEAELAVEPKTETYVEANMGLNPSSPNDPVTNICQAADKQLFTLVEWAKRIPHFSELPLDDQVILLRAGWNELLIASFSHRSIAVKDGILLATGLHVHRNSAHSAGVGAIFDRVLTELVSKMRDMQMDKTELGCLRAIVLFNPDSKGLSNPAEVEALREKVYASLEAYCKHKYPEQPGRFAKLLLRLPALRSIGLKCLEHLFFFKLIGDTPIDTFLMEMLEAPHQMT
In words: PPARγ-RXRα heterodimer ligand activity (luciferase reporter, PPARγ:RXRα:4ERPP/CHO-K1 cells). The class given is cell-based. Conditions: concentration for 50% of maximum fold induction of luciferase, 48 hrs. Here is the method: (PPARγ-RXRα Heterodimer Ligand Activity)
PPARγ:RXRα:4ERPP/CHO-K1 cells obtained in Reference Example 8a were cultured in HAM F12 medium (manufactured by NISSUI SEIYAKU) containing 10% fetal bovine serum [manufactured by Life Technologies, Inc., USA], seeded in a 96-well white plate [manufactured by Corning Coster Corporation, USA] at the density of 2×10^4 cells/well and cultured in a CO2 gas incubator at 37° C. overnight.
After washing the 96-well white plate with PBS (Phosphate-buffered saline), 90 μl of HAM F12 medium containing 0.1% fatty acid-free bovine serum albumin (BSA) and 10 μl of test compound were added, and the cells were cultured in a CO2 gas incubator at 37° C. for 48 hrs. The medium was removed and 40 μl of PicaGene 7.5 (manufactured by Wako Pure Chemical Industries, Ltd.) was added. After stirring, the luciferase activity was determined using Lumistar [manufactured by BMG Labtechnologies GmbH, Germany].
The fold induction was calculated from the luciferase activity of each test compound when the luciferase activity of the non-treatment group is taken as 1. The values of the test compound concentration and the fold induction were analyzed using PRISM 2.01 (produced by GraphPad Software Inc. USA) to calculate the EC50 values, the effective concentration of a test compound for 50% of the maximum fold induction.
Introduction of Human PPARγ- and RXRα-Expression Plasmid and Reporter Plasmid into CHO-K1 Cell and Establishment of Expressed Cell
After a CHO-K1 cell cultured in a tissue culture flask (750 ml) (produced by Corning Costar Corporation, USA) containing HAM F12 medium (produced by NISSUI SEIYAKU) supplemented with 10% fetal bovine serum (produced by Life Technologies, Inc., USA) was scraped by treating with 0.5 g/L trypsin-0.2 g/L EDTA (ethylenediaminetetraacetic acid) (produced by Life Technologies, Inc., USA), the cell was washed with PBS (phosphate-buffered saline) (produced by Life Technologies, Inc., USA), centrifuged (1000 rpm, 5 minutes), and then suspended in PBS. Subsequently, a DNA was introduced into the cell under the conditions shown below using GENE PULSER (produced by Bio-Rad Laboratories, USA).
Namely, to a cuvette having a 0.4 cm gap, added were 8×10^6 cells and 10 μg of plasmid pVgRXR2-hPPARγ obtained in Reference Example 7a and 10 μg of reporter plasmid pGL3-4ERPP-TK neo obtained in Reference Example 4a, which was subjected to electroporation at the voltage of 0.25 kV under the capacitance of 960 μF. Subsequently, the cell was transferred into a HAM F12 medium containing 10% fetal bovine serum and cultured for 24 hours and then the cell was scraped again and centrifuged, and then suspended in HAM F12 medium containing 10% fetal bovine serum supplemented with 500 μg/ml of GENETICIN, (produced by Life Technologies, Inc., USA) and 250 μg /ml of ZEOCIN (produced by Invitrogen, USA). The obtained suspension was diluted to the density of 10^4 cells/ml and inoculated to a 96-well plate (produced by Corning Costar Corporation, USA), which was cultured in a CO2 gas incubator at 37° C., whereby obtaining a GENETICIN- and ZEOCIN-resistant transformant.
Subsequently, after the transformant cell line thus obtained was cultured in a 24-well plate (produced by Corning Costar Corporation, USA), selected was a cell line in which the luciferase was expressed and induced, i.e., PPARγ:RXRα:4ERPP/CHO-K1 cell by the addition of 10 μM pioglitazone hydrochloride.
(In general: Reporter assays use an easily measured gene product as a stand-in for the process of interest.)

Setting [3] is: percent reduction of blood glucose level vs non-treatment group (100%), read-out: Hypoglycemic action (%).
Where [4] appears, read: percent reduction of blood triglyceride level vs non-treatment group (100%), read-out: Hypolipidemic action (%).

One may read the melting point as the temperature of the solid-liquid transition. In general, EC50 refers to the midpoint of the concentration-response curve. Lower therefore signals greater potency. Turning to `Cc1oc(-c2ccccc2)nc1COc1ccc(COc2nn(-c3ccccc3)cc2CC(=O)O)cn1` [Example 54, [3-[6-(5-methyl-2-phenyl-4-oxazolylmethoxy)-3-pyridylmethoxy]-1-phenyl-1H-pyrazol-4-yl]acetic acid], the melting point lay in the range of 164 to 165 °C. For the same compound, the inhibition in vivo at 0.01 % in diet in the series with KKA^y mice [1] (setting [3]) was determined as 52%. Moreover, the inhibition in vivo at 0.01 % in diet in the series on KKA^y mice [1] (setting [4]) was 89%. Moreover, in the series with KKA^y mice [2], the change in vivo at 0.01 % in diet worked out at 14% and the inhibition in vivo at 0.01 % in diet was 18%. Besides, the response on PPARγ-RXRα heterodimer was half-maximal at 0.64 nM (EC50).
On to `Cc1oc(-c2ccccc2)nc1COc1ccc(COc2nn(C)cc2CC(=O)O)cn1` [Example 26, [1-methyl-3-[6-(5-methyl-2-phenyl-4-oxazolylmethoxy)-3-pyridylmethoxy]-1H-pyrazol-4-yl]acetic acid], for which the melting point was in the range of 139 to 140 °C. The inhibition in vivo at 0.01 % in diet in the series with KKA^y mice [1] (setting [3]) came to 56%. The inhibition in vivo at 0.01 % in diet in the series on KKA^y mice [1] (setting [4]) came to 53%. Besides, in the series with KKA^y mice [2], the change in vivo at 0.01 % in diet is 14% and the inhibition in vivo at 0.01 % in diet is 14%. The compound further gave an EC50 at PPARγ-RXRα heterodimer of 37 nM.
Regarding `Cc1oc(-c2ccccc2)nc1COc1ccc(CCc2oc(-c3ccccc3)nc2CC(=O)O)cc1` [Example 64, [5-[2-[4-(5-methyl-2-phenyl-4-oxazolyl)methoxyphenyl]ethyl]-2-phenyl-4-oxazolyl]acetic acid], the melting point fell in the range of 180 to 181 °C. For the same compound, the EC50 on PPARγ-RXRα heterodimer came to 6.9 nM.
As to `Cc1oc(-c2ccccc2)nc1COc1ccc(Cc2nc(CCC(=O)O)c(-c3ccccc3)o2)cc1` [Example 6, 3-[2-[4-(5-methyl-2-phenyl-4-oxazolylmethoxy)benzyl]-5-phenyl-4-oxazolyl]propionic acid], the melting point was 136 to 137 °C. Also, the inhibition in vivo at 0.01 % in diet with KKA^y mice [1] (setting [3]) turned out to be 46%. For the same compound, the inhibition in vivo at 0.01 % in diet with KKA^y mice [1] (setting [4]) was 62%. Besides, in the series on KKA^y mice [2], the change in vivo at 0.01 % in diet worked out at 17% and the inhibition in vivo at 0.01 % in diet turned out to be 27%. The compound further showed an EC50 at PPARγ-RXRα heterodimer of 3.6 nM.
Regarding `Cc1oc(-c2ccccc2)nc1COc1ccc(COc2nn(-c3ccccc3)cc2CC(=O)O)cc1` [Example 50, [3-[4-(5-methyl-2-phenyl-4-oxazolylmethoxy)benzyloxy]-1-phenyl-1H-pyrazol-4-yl]acetic acid], the melting point is 151 to 152 °C. Moreover, the inhibition in vivo at 0.01 % in diet with KKA^y mice [1] (setting [3]) stood at 46%. Also, the inhibition in vivo at 0.01 % in diet in the series with KKA^y mice [1] (setting [4]) was determined as 81%. Also, in the series with KKA^y mice [2], the change in vivo at 0.01 % in diet was 12% and the inhibition in vivo at 0.01 % in diet came to 8%. In addition, the EC50 at PPARγ-RXRα heterodimer was 3.9 nM.
As for `Cc1oc(-c2ccccc2)nc1COc1ccc(Cc2nc(CCC(=O)O)c(-c3ccccc3)s2)cc1` [Example 8, 3-[2-[4-(5-methyl-2-phenyl-4-oxazolylmethoxy)benzyl]-5-phenyl-4-thiazolyl]propionic acid], the melting point lay within 119 to 120 °C. Besides, the inhibition in vivo at 0.01 % in diet in the series with KKA^y mice [1] (setting [3]) turned out to be 43%. Also, in the series with KKA^y mice [1] (setting [4]), the inhibition in vivo at 0.01 % in diet worked out at 56%. Further, in the series on KKA^y mice [2], the change in vivo at 0.01 % in diet is 11% and the inhibition in vivo at 0.01 % in diet worked out at 17%. For the same compound, the EC50 at PPARγ-RXRα heterodimer was determined as 16 nM.
Take `Cc1oc(-c2ccccc2)nc1COc1ccc(Cc2nc(-c3ccccc3)c(CCC(=O)O)o2)cc1` [Example 2, 3-[2-[4-(5-methyl-2-phenyl-4-oxazolylmethoxy)benzyl]-4-phenyl-5-oxazolyl]propionic acid]: the melting point lay in the range of 142 to 143 °C. The inhibition in vivo at 0.01 % in diet in the series with KKA^y mice [1] (setting [3]) is 45%. Besides, the inhibition in vivo at 0.01 % in diet with KKA^y mice [1] (setting [4]) turned out to be 52%. Moreover, the EC50 on PPARγ-RXRα heterodimer is 3.7 nM.
With `Cc1oc(-c2ccccc2)nc1COc1ccc(Cc2nc(-c3ccccc3)c(CCC(=O)O)[nH]2)cc1` [Example 4, 3-[2-[4-(5-methyl-2-phenyl-4-oxazolylmethoxy)benzyl]-4-phenyl-1H-imidazol-5-yl]propionic acid], the melting point lay in the range of 193 to 196 °C. Also, the EC50 on PPARγ-RXRα heterodimer worked out at 16 nM.
`COc1cc(COc2nn(-c3ccccc3)cc2CC(=O)O)ccc1OCc1nc(-c2ccccc2)oc1C` [Example 52, [3-[3-methoxy-4-(5-methyl-2-phenyl-4-oxazolylmethoxy)benzyloxy]-1-phenyl-1H-pyrazol-4-yl]acetic acid] registered a melting point of 147 to 148 °C. Also, in the series with KKA^y mice [1] (setting [3]), the inhibition in vivo at 0.01 % in diet was 50%. Besides, the inhibition in vivo at 0.01 % in diet with KKA^y mice [1] (setting [4]) was 82%. In the series with KKA^y mice [2], the change in vivo at 0.01 % in diet came to 16% and the inhibition in vivo at 0.01 % in diet is 22%. Moreover, it took 0.38 nM to reach a half-maximal effect on PPARγ-RXRα heterodimer (EC50).
